Here are results for ten compounds from ChEMBL document CHEMBL1201862, “PubChem BioAssay data set” (2004).

Some test systems named below: HCC 2998; A549; CAKI-1; MDA-MB-231; CCRF-CEM; OVCAR-5; MDA-MB-435; UACC-62; T47D; SF-268; 786-0; NCI/ADR-RES; UACC-257; IGROV-1; MCF7; DU-145; UO-31; LOX IMVI; SW-620; U-251.
Holding throughout (test): DTP human tumour cell line panel, 48 h

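Protocol summary: plate cells (96-well), add compound at 5 concentrations, incubate 48 h, interpolate endpoints linearly. GI50 marks 50% less growth.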 Activity calls are given as the source filed them. Cut-off read from the data, not from the text of the source: active = GI50 up to about 1.1 µM and inactive = higher. Some results are limits rather than exact numbers.

In general, GI50 refers to the concentration at which growth is held to half of that of the control. As to `OC(COc1ccccc1)CN1CCCCC1` (stereo not given), the GI50 in the assay on HCC 2998, with A549, in the assay on CAKI-1, in the assay on MDA-MB-231, in the assay on CCRF-CEM and in the assay on OVCAR-5 was > 100 µM (inactive) throughout. In addition, the GI50 in the assay with MDA-MB-435, with UACC-62, with T47D, in the assay with SF-268, with 786-0 and in the assay with NCI/ADR-RES was > 100 µM (inactive) throughout. The GI50 in the assay on UACC-257, with IGROV-1, in the assay with MCF7, in the assay with DU-145, with UO-31 and in the assay with LOX IMVI was > 100 µM (inactive) throughout. Besides, the GI50 in the assay with SW-620 and in the assay on U-251 was > 100 µM (inactive) throughout.

With `CCOC(=O)C1CCC(=O)N1C(=O)c1ccc(Cl)cc1` (stereo not given), the GI50 in the assay on HCC 2998, in the assay with A549, in the assay on CAKI-1, with MDA-MB-231, in the assay on CCRF-CEM and in the assay with OVCAR-5 was > 100 µM (inactive) throughout. The GI50 in the assay with MDA-MB-435 was > 100 µM (inactive); in the assay on UACC-62, 22.3 µM (inactive); in the assay on T47D, > 100 µM (inactive); in the assay with SF-268, > 100 µM (inactive); in the assay on 786-0 it was > 100 µM (inactive); in the assay on NCI/ADR-RES it was > 100 µM (inactive). In addition, the GI50 in the assay on UACC-257, in the assay with IGROV-1, in the assay with MCF7, with DU-145, with UO-31 and in the assay on LOX IMVI was > 100 µM (inactive) throughout. For the same compound, the GI50 in the assay with SW-620 and in the assay on U-251 was > 100 µM (inactive) in each case.

For the compound `CC1(C)C2CC(=O)C1(C)C(OCc1ccccc1)C2` (stereo not given), the GI50 in the assay with HCC 2998 is 59.8 µM (inactive); in the assay with A549, 74.3 µM (inactive); in the assay with CAKI-1, 40.6 µM (inactive); in the assay on MDA-MB-231, 44 µM (inactive); in the assay with CCRF-CEM it was 26.1 µM (inactive); in the assay on OVCAR-5, 29.4 µM (inactive). In addition, the GI50 was 47 µM (inactive) in the assay with MDA-MB-435; 62.5 µM (inactive) in the assay with UACC-62; 40.4 µM (inactive) with T47D; > 100 µM (inactive) in the assay on SF-268; 70 µM (inactive) in the assay with 786-0; 28.6 µM (inactive) in the assay on NCI/ADR-RES. In addition, the GI50 in the assay on UACC-257 is 74 µM (inactive); with IGROV-1, > 100 µM (inactive); in the assay with MCF7 it was 64.7 µM (inactive); in the assay with DU-145, > 100 µM (inactive); in the assay with UO-31 it was 62.7 µM (inactive); in the assay with LOX IMVI, 22.1 µM (inactive). Besides, the figures for the GI50 in the assay on SW-620 and with U-251 were 29.6 µM (inactive) and 48.3 µM (inactive), respectively.

Take `Cn1c(=O)cc(NCCc2ccccc2)[nH]c1=O`: the GI50 was 27.8 µM (inactive) with HCC 2998; 38.8 µM (inactive) with A549; 22.8 µM (inactive) in the assay on CAKI-1; 12.3 µM (inactive) in the assay with MDA-MB-231; 31.7 µM (inactive) in the assay on CCRF-CEM; > 100 µM (inactive) with OVCAR-5. Moreover, the GI50 with MDA-MB-435 is 5.46 µM (inactive); in the assay with UACC-62 it was 19.9 µM (inactive); in the assay on T47D, 54.5 µM (inactive); in the assay with SF-268, > 100 µM (inactive); with 786-0, 41 µM (inactive); with NCI/ADR-RES, 24.7 µM (inactive). The GI50 with UACC-257 is 50 µM (inactive); in the assay with IGROV-1, 38.8 µM (inactive); with MCF7, 19.7 µM (inactive); with DU-145, 52 µM (inactive); in the assay on UO-31, 34.1 µM (inactive); in the assay with LOX IMVI, 46.6 µM (inactive). Besides, the GI50 is 27.5 µM (inactive) in the assay on SW-620 and 61.1 µM (inactive) in the assay with U-251.

Consider `CCOC(=O)/C=C(/C(=O)OCC)n1cc(C)c(=O)[nH]c1=O`, for which the GI50 is 5.71 µM (inactive) in the assay on HCC 2998; 16.4 µM (inactive) in the assay on A549; 1.15 µM (inactive) in the assay with CAKI-1; 4.51 µM (inactive) in the assay on MDA-MB-231; 1.37 µM (inactive) in the assay on CCRF-CEM; 5.87 µM (inactive) with OVCAR-5. Also, the GI50 in the assay with MDA-MB-435 is 3.07 µM (inactive); with UACC-62 it was 5.14 µM (inactive); with T47D, 3.69 µM (inactive); in the assay on SF-268 it was 8.65 µM (inactive); in the assay with 786-0, 2.49 µM (inactive); with NCI/ADR-RES, 10.9 µM (inactive). Moreover, the GI50 with UACC-257 is 12.9 µM (inactive); in the assay with IGROV-1 it was 5.36 µM (inactive); in the assay with MCF7, 3.89 µM (inactive); in the assay with DU-145, 16.1 µM (inactive); in the assay on UO-31 it was 11.2 µM (inactive); in the assay on LOX IMVI, 2.19 µM (inactive). Also, the GI50 was 2.01 µM (inactive) with SW-620 and 6.62 µM (inactive) with U-251.

`OC(CCN1CCN(CCOC(c2ccc(F)cc2)c2ccc(F)cc2)CC1)c1ccccc1` (stereo not given): the GI50 is 3.52 µM (inactive) in the assay with HCC 2998; 16.4 µM (inactive) in the assay with A549; 16.8 µM (inactive) in the assay with CAKI-1; 14.6 µM (inactive) in the assay on MDA-MB-231; 19 µM (inactive) in the assay with CCRF-CEM; 14.5 µM (inactive) with OVCAR-5. Moreover, the GI50 is 17.8 µM (inactive) in the assay on MDA-MB-435; 14.5 µM (inactive) in the assay with UACC-62; 12.3 µM (inactive) in the assay on T47D; 16.9 µM (inactive) in the assay with SF-268; 12.9 µM (inactive) with 786-0; 13.3 µM (inactive) in the assay on NCI/ADR-RES. In addition, the GI50 with UACC-257 is 16.2 µM (inactive); in the assay with IGROV-1 it was 13.6 µM (inactive); with MCF7, 16.6 µM (inactive); in the assay on DU-145, 17.3 µM (inactive); in the assay on UO-31 it was 3.37 µM (inactive); in the assay with LOX IMVI it was 14.6 µM (inactive). Besides, the GI50 in the assay with SW-620 is 22.8 µM (inactive); with U-251 it was 14.6 µM (inactive).

With `c1ccc(CCN2CCOCC2)nc1`, the GI50 in the assay with HCC 2998, with A549, in the assay with CAKI-1, in the assay on MDA-MB-231, in the assay with CCRF-CEM and in the assay on OVCAR-5 was > 100 µM (inactive) in each case. For the same compound, the GI50 with MDA-MB-435, with UACC-62, in the assay on T47D, in the assay on SF-268, in the assay on 786-0 and in the assay with NCI/ADR-RES was > 100 µM (inactive) each time. In addition, the GI50 in the assay on UACC-257, in the assay with IGROV-1, in the assay with MCF7, with DU-145, with UO-31 and in the assay with LOX IMVI was > 100 µM (inactive) each time. Further, the GI50 in the assay on SW-620 and in the assay with U-251 was > 100 µM (inactive) throughout.

`COc1ccc2[nH]c(Cl)c(/C=C3/C(=O)N(c4ccccc4)c4ccccc43)c2c1`: the GI50 in the assay on HCC 2998 was 4.24 µM (inactive); in the assay on A549, 5.31 µM (inactive); in the assay with CAKI-1, 10.6 µM (inactive); in the assay on MDA-MB-231 it was 6.35 µM (inactive); in the assay with CCRF-CEM, 2.96 µM (inactive); with OVCAR-5, 13.6 µM (inactive). Besides, the GI50 in the assay with MDA-MB-435 is 1.46 µM (inactive); with UACC-62, 5.21 µM (inactive); with T47D, 3.76 µM (inactive); in the assay with SF-268, 5.08 µM (inactive); with 786-0, 6.37 µM (inactive); in the assay on NCI/ADR-RES, 2.1 µM (inactive). Besides, the GI50 in the assay with UACC-257 was 7.13 µM (inactive); in the assay on IGROV-1, 4.84 µM (inactive); in the assay on MCF7, 0.506 µM (active); in the assay on DU-145 it was 18.3 µM (inactive); in the assay with UO-31, 7.59 µM (inactive); in the assay with LOX IMVI, 3.29 µM (inactive). Besides, the GI50 was 3.78 µM (inactive) in the assay with SW-620 and 3.98 µM (inactive) in the assay with U-251.

For `Cc1cc2c(cc1C)C(=O)C1(C2)Cc2c(ccc(C)c2C)C1=O` (stereo not given), the GI50 is > 100 µM (inactive) with HCC 2998; 73.6 µM (inactive) in the assay with A549; > 100 µM (inactive) in the assay with CAKI-1; > 100 µM (inactive) with MDA-MB-231; > 100 µM (inactive) with CCRF-CEM; > 100 µM (inactive) with OVCAR-5. In addition, the GI50 in the assay with MDA-MB-435 was > 100 µM (inactive); in the assay on UACC-62, > 100 µM (inactive); in the assay on T47D, > 100 µM (inactive); in the assay with SF-268 it was 90.8 µM (inactive); with 786-0 it was 89.1 µM (inactive); with NCI/ADR-RES, > 100 µM (inactive). In addition, the GI50 in the assay on UACC-257, in the assay with IGROV-1, with MCF7, in the assay on DU-145, in the assay on UO-31 and with LOX IMVI was > 100 µM (inactive) throughout. Also, the GI50 in the assay on SW-620 and in the assay on U-251 was > 100 µM (inactive) in each case.

For `Cc1cc(C)c2c(O)cc(-c3ccc4ccccc4c3)nc2n1`, the GI50 in the assay with HCC 2998 was 16.3 µM (inactive); in the assay with A549, 12.5 µM (inactive); with CAKI-1 it was 54.6 µM (inactive); in the assay with MDA-MB-231, 23.1 µM (inactive); with CCRF-CEM, 11.6 µM (inactive); with OVCAR-5 it was 43.8 µM (inactive). Moreover, the GI50 was 2.92 µM (inactive) in the assay with MDA-MB-435; 14.7 µM (inactive) in the assay on UACC-62; 17.3 µM (inactive) with T47D; 57.3 µM (inactive) with SF-268; 39.8 µM (inactive) with 786-0; 17.1 µM (inactive) in the assay on NCI/ADR-RES. In addition, the GI50 was 21.2 µM (inactive) with UACC-257; 12.6 µM (inactive) in the assay with IGROV-1; 15.5 µM (inactive) in the assay on MCF7; 21.7 µM (inactive) in the assay with DU-145; 22.9 µM (inactive) in the assay with UO-31; 17.9 µM (inactive) with LOX IMVI. The GI50 in the assay with SW-620 is 15.2 µM (inactive); in the assay on U-251 it was 16.7 µM (inactive).
